Source: US8961930B2, “Isatin derivatives for use as in vivo imaging agents” (Imperial Innovations Limited, priority 2008, dated 2015)

What was measured:
RIF-1 cells = assay: In vitro [^18F]11 uptake in RIF-1 cells; type: cell-based, murine
Description: The human ovarian carcinoma cell lines PEO1/4 were established and characterised as described in Wolf C. R. et al.^22 and Langdon S. P. et al^23. Briefly, PEO1/4 cells were derived from the malignant ascites of a patient with a recurrent mucinous ovarian adenocarcinoma, before (PEO1) and after (PEO4) the onset of a clinical resistance to cisplatin chemotherapy in this patient. The radiation-induced murine fibrosarcoma (RIF-1) tumour cell line was originally characterised by Twentyman P. R. et al.^20. The LNM35 tumour cells are a highly lymphogenous metastatic subline of the human large pulmonary carcinoma NCI-H460 cell line, as described in Kozaki K. et al.^24. […]
Cells were plated in triplicate in 12-well plates 2 or 3 days prior to the experiments and treated with the antineoplastic platinum-derived drug Cisplatin, 5-FU, the protein synthesis inhibitor cycloheximide (CHX) or the topoisomerase inhibitor etoposide (VP-16) (Sigma, UK) or corresponding vehicle at the indicated concentration and time. […] 260 μL of each sample were transferred in counting tubes and Fluorine-18 radioactivity was immediately determined using a Packard Cobra II gamma counter (Perkin Elmer, UK). […] BCA Protein assay (Pierce, UK) was performed for all samples and datas are normalized and expressed as CCPMA or RLU (Relative Light Unit)/mg of protein. […]

[1] = system: 38C13 murine lymphoma xenograft; assay: Biodistribution of [^18F]11 in 38C13 xenograft-bearing mice after PET scan; type: in vivo, C3H/hej mice; design: Biodistribution, Lung: unit not given here
Method: The in vivo experimental model of tumour apoptosis was established by subcutaneous injection of 38C13 murine lymphoma cells (5000 cells) on the back of 6-8 weeks old male C3H/hej mice (Harlan, Bicester, Oxfordshire, UK). When xenografts reached ˜100 mm3, the mice were treated with cyclophosphamide (CPA, 100 mg/kg) or vehicle for 24 h and then scanned on a dedicated small animal PET scanner (Siemens Inveon PET module). Anesthetized animals were placed within a thermostatically controlled bed and positioned prone within the scanner. A bolus injection of [^18F]11 (˜100 μCi) was given intravenously (i.v.) via the tail vein cannula and scanning commenced.
Dynamic emission scans were acquired in list-mode format over 60 minutes. The acquired data were then sorted into 0.5-mm sinogram bins and 19 time frames for image reconstruction, which was done by filtered back projection. The image data-sets obtained were visualized using the Siemens Inveon Research Workplace software. Cumulative images of the dynamic data were used for visualization of radiotracer uptake and to define the regions of interest (ROI). The count densities were averaged for each ROI at each of the 19 time points to obtain a time versus radioactivity curve (TAC) for the ROIs (see FIG. 15).
Tumour TAC was normalized to that of whole body at each of the time points to obtain the normalized uptake value (NUV).
After the scan, the different tissues were removed, weighted and placed in tubes for immediate Fluorine-18 radioactivity counting to assess the [^18F]11 biodistribution (See Table 4, below).

`O=C1C(=O)N(Cc2cn(CC[18F])nn2)c2ccc(S(=O)(=O)N3CCC[C@H]3COc3ccc(F)cc3F)cc21` [[^18F]11, (S)-1-((1-(2-Fluoroethyl)-1H-[1,2,3]-triazol-4-yl)methyl)-5-(2(2,4-difluorophenoxymethyl)-pyrrolidine-1-sulfonyl)isatin] was tested. Which “increase in uptake in apoptotic cells” value (RIF-1 cells; CDDP 100 μM 48 h vs vehicle, 1 h incubation) did it give?
The value was ~1.5 fold.

And the “[^18F]11 uptake in drug-treated cells compared to control” value (RIF-1 cells; CDDP or CHX 10 μg/mL 24 h, 60 min uptake)?
Its value is “significantly increased”.

And the “increase in uptake in tumours of CPA-treated mice compared to the vehicle” value ([1]; 38C13 xenograft, CPA 100 mg/kg 24 h)?
The value was 2 fold.

And the “Biodistribution, Blood” value ([1]; CPA)?
Its value is 1.00 ± 0.00 % ID Tumour/blood ratio.

And the “Biodistribution, Blood” value ([1]; Vehicle)?
The value was 1.00 ± 0.00 % ID Tumour/blood ratio.

And the “Biodistribution, Bone” value ([1]; CPA)?
Its value is 0.93 ± 0.07 % ID Tumour/blood ratio.

And the “Biodistribution, Bone” value ([1]; Vehicle)?
The value was 0.87 ± 0.10 % ID Tumour/blood ratio.

And the “Biodistribution, Brain” value ([1]; CPA)?
Its value is 0.23 ± 0.03 % ID Tumour/blood ratio.

And the “Biodistribution, Brain” value ([1]; Vehicle)?
Its value is 0.24 ± 0.02 % ID Tumour/blood ratio.

And the “Biodistribution, Feces” value ([1]; CPA)?
The value was 8.46 ± 0.91 % ID Tumour/blood ratio.

And the “Biodistribution, Feces” value ([1]; Vehicle)?
Its value is 13.28 ± 2.37 % ID Tumour/blood ratio.

And the “Biodistribution, Heart” value ([1]; CPA)?
The value was 1.43 ± 0.16 % ID Tumour/blood ratio.

And the “Biodistribution, Heart” value ([1]; Vehicle)?
The value was 1.31 ± 0.10 % ID Tumour/blood ratio.

And the “Biodistribution, Kidney” value ([1]; CPA)?
The value was 7.23 ± 0.47 % ID Tumour/blood ratio.

And the “Biodistribution, Kidney” value ([1]; Vehicle)?
The value was 7.21 ± 0.33 % ID Tumour/blood ratio.

And the “Biodistribution, L. Intestine” value ([1]; CPA)?
Its value is 2.78 ± 0.64 % ID Tumour/blood ratio.

What about the “Biodistribution, L. Intestine” value ([1]; Vehicle) of the same compound?
Its value is 6.07 ± 0.62 % ID Tumour/blood ratio.

What about the “Biodistribution, Liver” value ([1]; CPA) of the same compound?
The value was 14.17 ± 1.55 % ID Tumour/blood ratio.

And the “Biodistribution, Liver” value ([1]; Vehicle)?
The value was 10.60 ± 0.75 % ID Tumour/blood ratio.

And the “Biodistribution, Lung” value ([1]; CPA)?
The value was 5.49 ± 0.66.

And the “Biodistribution, Lung” value ([1]; Vehicle)?
Its value is 4.27 ± 0.13.

And the “Biodistribution, Muscle” value ([1]; CPA)?
Its value is 1.20 ± 0.07 % ID Tumour/blood ratio.

And the “Biodistribution, Muscle” value ([1]; Vehicle)?
Its value is 1.22 ± 0.07 % ID Tumour/blood ratio.

And the “Biodistribution, Plasma” value ([1]; CPA 100 mg/kg 24 h, 38C13 xenograft)?
Its value is 1.90 ± 0.09 % ID Tumour/blood ratio.

And the “Biodistribution, Plasma” value ([1]; Vehicle, 38C13 xenograft)?
The value was 1.98 ± 0.23 % ID Tumour/blood ratio.

And the “Biodistribution, S. Intestine” value ([1]; CPA)?
The value was 83.12 ± 70.19 % ID Tumour/blood ratio.

And the “Biodistribution, S. Intestine” value ([1]; Vehicle)?
The value was 291.61 ± 28.68 % ID Tumour/blood ratio.

What about the “Biodistribution, Spleen” value ([1]; CPA) of the same compound?
Its value is 1.81 ± 0.37 % ID Tumour/blood ratio.

What about the “Biodistribution, Spleen” value ([1]; Vehicle) of the same compound?
The value was 2.30 ± 0.38 % ID Tumour/blood ratio.

And the “Biodistribution, Stomach” value ([1]; CPA)?
The value was 1.62 ± 0.19 % ID Tumour/blood ratio.

What about the “Biodistribution, Stomach” value ([1]; Vehicle) of the same compound?
Its value is 1.95 ± 0.00 % ID Tumour/blood ratio.

And the “Biodistribution, Tumour” value ([1]; CPA)?
The value was 1.24 ± 0.11 % ID Tumour/blood ratio.

And the “Biodistribution, Tumour” value ([1]; Vehicle)?
Its value is 0.83 ± 0.10 % ID Tumour/blood ratio.

What about the “Biodistribution, Urine” value ([1]; CPA) of the same compound?
Its value is 43.64 ± 12.24 % ID Tumour/blood ratio.

And the “Biodistribution, Urine” value ([1]; Vehicle)?
The value was 116.71 ± 19.47 % ID Tumour/blood ratio.
